Measurements: PMC4344207 (PLoS ONE, 2015)
Read-outs that look alike come from different tables or passages of the source.

B1: trypsin inhibitor (soybean): soybean trypsin inhibitor (protein, UniProt P01070 25-205, looked up)
Trypsin inhibitor A: DFVLDNEGNPLENGGTYYILSDITAFGGIRAAPTGNERCPLTVVQSRNELDKGIGTIISSPYRIRFIAEGHPLSLKFDSFAVIMLCVGIPTEWSVVEDLPEGPAVKIGENKDAMDGWFRLERVSDDEFNNYKLVFCPQQAEDDKCGDIGISIDHDDGTRRLVVSKNKPLVVQFQKLDKESL

Tests used:
[1] = system: exendin-4 degradation in rat kidney homogenate; test: Inhibition of exendin-4 metabolism by protease inhibitors in rat kidney homogenate; assay type: biochemical
[2] = system: exendin-4 degradation in rat liver homogenate; test: Inhibition of exendin-4 metabolism by protease inhibitors in rat liver homogenate; assay type: biochemical
[3] = humans, biologically active GLP-1; cited from earlier work
Excerpt: (§1) In 2003, the International Diabetes Federation (IDF) estimated that almost 200 million people around the world had diabetes mellitus (DM). Approximately 90–95% of people with DM have type 2 diabetes mellitus (T2DM), which is characterized by hyperglycemia, insulin resistance, absolute or relative insulin deficiency, hyperglucagonemia, and increased hepatic glucose production. An optimal therapy for controlling the circulating glucose levels has not been established, and many currently available therapies are associated with unfavorable side effects, which limit their use. […] Although naturally resist ...

[4] = system: plasma dipeptidyl peptidase-IV (DPP-IV); conditions: circulating GLP-1, rat and human plasma DPP-IV; cited from earlier work
Excerpt: as §1

Molecule	percentage inhibition of exendin-4 degradation, kidney [1]	percentage inhibition of exendin-4 degradation, liver [2]	further results
O=C(O)CNC(=O)C(CS)Cc1ccccc1 (racemic) [DL-thiorphan]	–	–	percentage inhibition of exendin-4 degradation, kidney ([1]; rat kidney homogenate, inhibitor pre-incubated 10 min at 37°C, then exendin-4 10 μM for 30 min, NEM 10 mM, phenanthroline 2 mM, PPACK 210 μM, soybean 1 mg/mL, DL-thiorphan 2 mM, captopril 30 μM, DFP 10 mM, PMSF 1 mM, amastatin 100 μM, bestatin 2 mM, LC-ESI-MS, n = 3): 73%; percentage inhibition of exendin-4 degradation, liver ([2]; rat liver homogenate, inhibitor pre-incubated 10 min at 37°C, then exendin-4 10 μM for 60 min, NEM 10 mM, phenanthroline 2 mM, PPACK 210 μM, soybean 1 mg/mL, DL-thiorphan 2 mM, captopril 30 μM, DFP 10 mM, PMSF 1 mM, amastatin 100 μM, bestatin 2 mM, LC-ESI-MS, n = 3): no effect
NC(N)=NCCC[C@H](NC(=O)[C@@H]1CCCN1C(=O)[C@H](N)Cc1ccccc1)C(=O)CCl [PPACK]	41%	no effect	–
CC(C)C[C@H](NC(=O)[C@@H](O)[C@H](N)Cc1ccccc1)C(=O)O [bestatin]	11%	48%	–
O=S(=O)(F)Cc1ccccc1 [PMSF, phenylmethylsulfonyl fluoride]	18%	65%	–
glucagon-like peptide 1 [GLP-1]	–	–	apparent serum half-life [3]: 1 to 2 min; cleavage by rat and human plasma DPP-IV [4]: rapid proteolytic cleavage
C[C@H](CS)C(=O)N1CCC[C@H]1C(=O)O [captopril]	not inhibited	not inhibited	–
CC(C)C[C@@H](N)[C@H](O)C(=O)N[C@H](C(=O)N[C@H](C(=O)N[C@@H](CC(=O)O)C(=O)O)C(C)C)C(C)C [amastatin]	32%	13.2%	–
CCN1C(=O)C=CC1=O [NEM, N-ethylmaleimide]	not inhibited	not inhibited	–
c1cnc2c(c1)ccc1cccnc12 [1,10-phenanthroline]	> 77%	> 77%	–
B1	no effect	20%	–
